Experimental data taken from patent publication US6623981B2, “Detection of patients at risk for developing integrin antagonist/agonist mediated disease states” (Bristol-Myers Squibb Company, priority 1998, dated 2003).

Assays:
[1] = molecular target: T1, immobilized GPIIb/IIIa (Homo sapiens, UniProt P05106+P08514); test: GPIIb/IIIa DDAB ELISA: binding of plasma drug-dependent antibodies in presence versus absence of GPIIb/IIIa antagonist; conditions: for reactivity of the thrombocytopenic chimpanzee plasma in the DDAB ELISA / reactivity of the patient's plasma in the DDAB ELISA: in words; for ratio mOD/minute in the presence versus absence of the respective compound: antagonist 100 nM
T1 construct: GPIIb/IIIa was either obtained from commercial sources (Enzyme Research Laboratories) or purified as outlined below; Outdated platelet concentrates; tissue Enzyme Research Laboratories (alternative source; no catalogue number given); host or cells: outdated platelet concentrates (Interstate Blood Bank)
T1 sequence (P08514 32-887 limits assumed): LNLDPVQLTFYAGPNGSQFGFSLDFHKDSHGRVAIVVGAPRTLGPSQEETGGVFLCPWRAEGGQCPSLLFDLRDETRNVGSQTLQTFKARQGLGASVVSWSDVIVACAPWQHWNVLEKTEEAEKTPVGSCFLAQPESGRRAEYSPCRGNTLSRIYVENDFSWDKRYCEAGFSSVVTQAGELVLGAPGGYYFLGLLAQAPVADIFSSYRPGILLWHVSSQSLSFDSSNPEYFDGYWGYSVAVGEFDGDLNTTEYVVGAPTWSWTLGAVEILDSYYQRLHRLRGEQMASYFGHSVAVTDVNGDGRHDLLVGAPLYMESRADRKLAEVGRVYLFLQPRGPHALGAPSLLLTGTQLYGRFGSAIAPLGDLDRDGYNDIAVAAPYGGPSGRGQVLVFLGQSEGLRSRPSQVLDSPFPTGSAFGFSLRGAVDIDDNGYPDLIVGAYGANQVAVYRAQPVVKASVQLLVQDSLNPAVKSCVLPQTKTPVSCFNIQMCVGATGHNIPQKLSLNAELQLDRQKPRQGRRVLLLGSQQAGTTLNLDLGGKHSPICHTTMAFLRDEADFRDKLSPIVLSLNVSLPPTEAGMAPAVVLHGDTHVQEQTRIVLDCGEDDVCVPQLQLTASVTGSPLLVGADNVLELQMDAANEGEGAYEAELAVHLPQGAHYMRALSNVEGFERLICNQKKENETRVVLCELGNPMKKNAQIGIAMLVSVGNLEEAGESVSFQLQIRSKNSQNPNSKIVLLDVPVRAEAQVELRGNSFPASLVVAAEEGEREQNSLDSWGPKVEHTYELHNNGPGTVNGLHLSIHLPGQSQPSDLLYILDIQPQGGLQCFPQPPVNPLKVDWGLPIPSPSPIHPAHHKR
T1 sequence (P08514 891-1039 limits assumed): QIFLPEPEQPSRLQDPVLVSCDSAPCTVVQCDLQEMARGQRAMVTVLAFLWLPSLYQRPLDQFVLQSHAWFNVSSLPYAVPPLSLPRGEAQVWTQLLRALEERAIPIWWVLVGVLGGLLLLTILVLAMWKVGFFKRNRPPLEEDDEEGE
T1 sequence (P05106 27-788): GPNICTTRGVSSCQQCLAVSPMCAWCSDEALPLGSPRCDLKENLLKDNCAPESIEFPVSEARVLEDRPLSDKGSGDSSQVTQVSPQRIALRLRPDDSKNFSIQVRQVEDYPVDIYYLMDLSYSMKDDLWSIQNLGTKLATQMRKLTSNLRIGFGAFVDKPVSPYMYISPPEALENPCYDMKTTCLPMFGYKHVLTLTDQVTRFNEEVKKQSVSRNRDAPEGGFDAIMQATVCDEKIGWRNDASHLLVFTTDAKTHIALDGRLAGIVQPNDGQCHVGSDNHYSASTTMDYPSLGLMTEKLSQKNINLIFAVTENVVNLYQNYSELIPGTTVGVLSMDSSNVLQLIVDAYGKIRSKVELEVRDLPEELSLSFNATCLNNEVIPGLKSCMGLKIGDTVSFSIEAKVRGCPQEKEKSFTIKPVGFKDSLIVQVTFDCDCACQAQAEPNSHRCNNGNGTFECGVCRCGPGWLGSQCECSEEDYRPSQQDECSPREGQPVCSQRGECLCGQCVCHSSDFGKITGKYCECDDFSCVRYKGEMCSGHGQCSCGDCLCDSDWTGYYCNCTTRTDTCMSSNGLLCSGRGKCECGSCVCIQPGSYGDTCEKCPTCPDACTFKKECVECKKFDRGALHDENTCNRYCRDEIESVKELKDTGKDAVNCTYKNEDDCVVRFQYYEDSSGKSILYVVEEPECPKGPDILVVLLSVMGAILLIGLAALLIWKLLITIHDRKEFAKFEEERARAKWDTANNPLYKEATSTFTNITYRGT
Method: (§1) In the ELISA Type-2 procedure, Costar Enzyme Immunoassay/Radioimmunoassay [EIA/RIA] 96 well flat bottom plates (medium binding [#3591]) were coated (4° C., 16 hours) with 250 ng of GPIIb/IIIa in phosphate buffered saline (PBS) containing 1 mM CaCl2 and 0.5 mM MgCl2 (PBS/Ca/Mg) in the presence or absence of the indicated GPIIb/IIIa antagonist (100 nM). After three washing steps (PBS/Ca/Mg containing 0.05% v/v Tween 20), plasma was diluted 1:5 in PBS/Ca/Mg containing 0.05% Tween 20 and added to the coated wells in the absence or presence of the indicated GPIIb/IIIa antagonist (100 nM) for 1 hour at room temperature. The wells were washed (PBS/Ca/Mg containing 0.05% v/v Tween 20) and incubated with peroxidase-labeled goat anti-human IgG (y) (Kirkegaard & Perry) for 1 hour at room temperature. The wells were washed (PBS/Ca/Mg containing 0.05% v/v Tween 20) and developed with o-phenyleninediamine [OPD] (0.4 mg/mL in phosphate citrate buffer containing sodium perborate [Sigma]). The change of absorbance was determined kinetically for 15 minutes at […] using a standard ELISA reader. Results are expressed as either delta OD [change in optical density] (Vmax plus compound)−(Vmax minus compound), or the ratio (Vmax plus compound/Vmax minus compound).
In the ELISA Type-1 procedure, after coating with GPIIb/IIIa, the plates were blocked with 1% goat serum (VWR Scientific) and 0.1% casein (Sigma) in PBS/Ca/Mg containing 0.05% Tween 20 for 30 minutes at room temperature, followed by the addition of plasma (diluted in PBS/Ca/Mg containing 0.05% Tween 20, 1% v/v goat serum, 0.1% casein) for 1 hour at room temperature. The secondary antibody was diluted 1:10,000 in PBS/Ca/Mg containing 0.05% Tween 20 and 0.1% casein, and added for 1 hour at room temperature. The bound peroxidase-labeled IgG was detected with 3,3′,5,5′-tetramethylbenzidine (TMB, substrate kit; Pierce) and change in absorbance was determined for 5 minutes at […]. In addition, in the ELISA Type-1 procedure, the respective GPIIb/IIIa antagonist (100 nM) was present in the appropriate wells throughout all incubation and washing steps. The ELISA Type-1 procedure with optimized blocking conditions combined with further purification of the GPIIb/IIIa reduced the background, resulting in increased signal to noise ratio. The immunoglobulin class of DDABs was determined using peroxidase-labeled murine monoclonal antibodies to human Ig (Zymed) as the detection step in the modified ELISA protocol. For these experiments, normal goat serum was replaced with normal murine serum (Zymed).
The ability of DDABs present in plasma from a patient and a chimpanzee to bind to immobilized GPIIb/IIIa in the presence of various GPIIb/IIIa antagonists were compared. Results are expressed as the ratio mOD/minute in the presence versus absence of the respective compound.
(§2) The reactivity of the patient's plasma with Compound A and metabolites thereof was compared. Metabolites of Compound A were isolated from rat urine and tested for their ability to prevent platelet aggregation in platelet-rich plasma. The ability of DDABs present in plasma from a patient to bind to GPIIb/IIIa in the presence of the indicated metabolites of Compound A was tested using the GPIIb/IIIa DDAB ELISA. All three metabolites of Compound A were active in preventing ADP-induced platelet aggregation using platelet rich plasma. While the metabolites only differ from the parental compound (Compound A) with respect to hydroxylation of a single carbon atom, the reactivity of the patient's DDABs with metabolite M-3 was only 50% and that with metabolite M-2 was undetectable.

[2] = tested on: platelet aggregation in platelet-rich plasma; test: ADP-induced platelet aggregation in platelet-rich plasma (PRP); assay type: cell-based
Method: as §2

[3] = molecular target: T2, GPIIb/IIIa (Homo sapiens, UniProt P05106+P08514); test: DDAB ELISA Type-2 screen of blood donor plasma (general population); assay type: binding; conditions: American Red Cross blood donors
T2 construct: GPIIb/IIIa was either obtained from commercial sources (Enzyme Research Laboratories) or purified as outlined below; Outdated platelet concentrates; tissue Enzyme Research Laboratories (alternative source; no catalogue number given); host or cells: outdated platelet concentrates (Interstate Blood Bank)
T2 sequence (P08514 32-887 limits assumed): as the sequence (P08514 32-887 limits assumed) above
T2 sequence (P08514 891-1039 limits assumed): as the sequence (P08514 891-1039 limits assumed) above
T2 sequence (P05106 27-788): as the sequence (P05106 27-788) above
Method: as §1
The occurrence of DDABs in the general population was tested. Plasma samples from blood donors were obtained from the American Red Cross and tested for reactivity with Compound A and Compound B in the DDAB ELISA Type-2 procedure. While the majority of the blood donors were negative in the DDAB ELISA, 2.2 and 14.6% donors presented a reactivity (delta>3) with Compound A and Compound B, respectively. A reactivity with a delta >5 was only evident in 1.3% and 7.1% of the blood donors with Compound A and Compound B, respectively. Thus, the prevalence and titer of pre-existing DDABs is relatively low in the general population and varies with the respective GPIIb/IIIa antagonist employed.

[4] = tested on: gel purified platelets; test: Distribution of DDABs from plasma to gel purified platelets, dose-response of antagonist, read by DDAB ELISA; assay type: cell-based, human; conditions: plasma of healthy donor with DDABs to Compound A
Method: Panel A: Citrate plasma was obtained from two patients (307, 330) and a chimpanzee (A264) presenting with thrombocytopenic episodes while treated with GPIIb/IIIa antagonists Compound A or Compound D, respectively. The resulting plasma was incubated (30 minutes, room temperature) with gel purified platelets in the absence (closed bars) or presence (open bars) of Compound A (307, 330), or Compound D (A264). Platelets were removed by centrifugation, and the resulting plasma was analyzed by a GPIIb/IIIa-specific DDAB ELISA. The ELISA determines the binding of antibodies to GPIIb/IIIa in the presence of Compound A (307, 330) or Compound D (A264). […] Panel B: Citrate plasma derived from chimpanzee A264 (open circles) or an apparently healthy donor (closed circles) containing DDABs to Compound A was incubated with gel purified platelets in the presence of the indicated dose-response of Compound D (A264) or Compound A (healthy donor) as in panel A. Platelet poor plasma was prepared and analyzed by the DDAB ELISA as in panel A. Results are expressed as percentage inhibition of DDABs in plasma in comparison to samples treated with platelets in the absence of GPIIb/IIIa antagonist.
For solution-phase absorption in the DDAB ELISA, gel filtered platelets were prepared. […] Platelet-containing fractions were manually collected and platelet concentration was determined using a Coulter Counter. […]

[5] = Blood concentration in dosed patients; assay type: in vivo
[6] = plasma #330 (thrombocytopenic patient treated with Compound A)
[7] = plasma A264 (thrombocytopenic chimpanzee dosed with Compound D)

reactivity of the thrombocytopenic chimpanzee plasma in the DDAB ELISA [1] | reactivity of the patient's plasma in the DDAB ELISA [1] | ratio mOD/minute in the presence versus absence of the respective compound [1, 6] | ratio mOD/minute in the presence versus absence of the respective compound [1, 7] | SMILES | ELISA ratio ([1]; DDABs in plasma from a patient, binding to GPIIb/IIIa in presence of Compound A or its metabolites) | IC50 [2] | blood donors with a reactivity with a delta >5 [3] | donors presenting a reactivity (delta>3) [3] | IC50 ([4]; estimated, read-out: IC50 (inhibition of DDABs in plasma by distribution to platelets)) | concentration required to completely shift the DDABs to the platelet surface ([4]; 30 minutes, room temperature) | Peak blood concentrations [5]
no reactivity | reacts strongly | 11.2 | 0.8 | Cc1noc(C)c1S(=O)(=O)N[C@@H](CNC(=O)C[C@H]1CC(c2ccc(C(=N)N)cc2)=NO1)C(=O)O [Compound B] | – | – | 7.1% | 14.6% | – | – | –
less | no reactivity | 1.0 | 5.4 | Cc1ccc(S(=O)(=O)N[C@@H](CNC(=O)c2cc3n(n2)CCCN(CCC2CCNCC2)C3=O)C(=O)O)cc1 [Compound C, 2(S)-((4-methylphenylsulfonyl)amino]-3-[[[5,6,7,8-tetrahydro-4-oxo-5-[2-(piperidin-4-yl)ethyl]-4H-pyrazolo-[1,5-a][1,4]diazepin-2-yl]carbonyl]amino]propionic acid] | – | – | – | – | – | – | –
strongly reactive | reacts strongly | 4.9 | 14.4 | O=C(NC[C@H](NS(=O)(=O)c1cccnc1)C(=O)O)c1cc2cc(CCC3CCNCC3)sc2s1 [Compound D, 5-[2-(piperdin-4-yl)ethyl]thieno[2,3-b]thiophene-2-N-(3-2(S)-(3-pyridinylsulfonylamino)propionic acid]carboxamide] | – | – | – | – | – | – | –

SMILES | reactivity of the thrombocytopenic chimpanzee plasma in the DDAB ELISA [1] | reactivity of the patient's plasma in the DDAB ELISA [1] | ratio mOD/minute in the presence versus absence of the respective compound [1, 6] | ratio mOD/minute in the presence versus absence of the respective compound [1, 7] | ELISA ratio ([1]; DDABs in plasma from a patient, binding to GPIIb/IIIa in presence of Compound A or its metabolites) | IC50 [2] | blood donors with a reactivity with a delta >5 [3] | donors presenting a reactivity (delta>3) [3] | IC50 ([4]; estimated, read-out: IC50 (inhibition of DDABs in plasma by distribution to platelets)) | concentration required to completely shift the DDABs to the platelet surface ([4]; 30 minutes, room temperature) | Peak blood concentrations [5]
CCCCOC(=O)N[C@@H](CNC(=O)C[C@H]1CC(c2ccc(C(=N)N)cc2)=NO1)C(=O)O [Compound A, 2(S)-[(n-butoxycarbonyl)amino]-3-[[[3-[4-(aminoiminomethyl)phenyl]isoxazolin-5 (R)-yl]methylcarbonyl]amino]propionic acid] | no reactivity | reacts strongly | 9.2 | 1.0 | 13.5 | 0.032 µM | 1.3% | 2.2% | ~0.0003 µM | Less than 1 nM | up to 50 nM
